The values that follow come from US10745355B2, “Anti-cancer compounds” (THE UNIVERSITY OF SYDNEY, priority 2015, dated 2020).

The test system of data set [1] is U87. Kind of data set: Alamar blue cell viability assay, U87 cells. The class given is cell-based. Conditions: Homo sapiens, U-87 MG; 72 hours of treatment; mean±SEM, three independent experiments. As to the method:
(§1) U87 and U251 cell lines were obtained from the European Collection of Cell Cultures (ECACC) through CellBank Australia. U87-EGFRvIII cell line was obtained from their lab of origin (Nishikawa et al., 1994, Proc Natl Acad Sci USA 91: 7727-7731) and tested for EGFR amplification and mutation by immunoblotting and flow cytometry. Cells were cultured in DMEM medium (Invitrogen by Life Technologies, Carlsbad, Calif., USA) supplemented with 10% FBS (Sigma-Aldrich) at 37° C. and 5% CO2. Primary gliomaspheres (RN1, classical; WK1, mesenchymal) were derived from glioblastoma specimens (Day et al., 2013, Cancers 5: 357-371; Day et al., 2013, Cancer Cell 23: 238-248), maintained in StemPro NSC serum-free media supplemented with EGF and FGF (all Life Technologies), and grown on matrigel-coated flasks (Pollard et al., 2009, Cell Stem Cell 4: 568-580).
(§2) Cell viability was determined using Alamar blue assay after 72 hours of treatment (Table 2). EC50 values were calculated using non-linear regression on Graph Pad Prism version 5. c Log P values calculated using ChemBioDraw Software. Results are mean±SEM from three independent experiments performed in triplicates.
Background: Alamar Blue is a resazurin reagent that responds to reducing activity.

The test system of data set [2] is U87vIII. As to the kind of experiment: Alamar blue cell viability assay, U87vIII cells. The class given is cell-based. Conditions: 72 hours of treatment; mean±SEM, three independent experiments. As to the method:
as §1, §2

The next data set relates to U251. Kind of data set: Alamar blue cell viability assay, U251 cells. Type of data set: cell-based. Conditions: Homo sapiens, U-251; 72 hours of treatment; mean±SEM, three independent experiments. As to the method:
as §1, §2

The subject of data set [3] is RN1 gliomaspheres (classical). As to the kind of experiment: AlamarBlue cell viability assay, RN1 gliomaspheres. The settings on record: 72 h of drug treatment, FIG. 11A. Type of data set: cell-based. As to the method: (§3) FIGS. 11A-11B. Efficacy of SC-38 (referred to as “CMPD1”), compound 1-08 (referred to as “cmpd 13”), compound 1-18 (referred to as “cmpd 7”), and compound 1-38 (referred to as “cmpd 10”) in primary gliomaspheres representing two glioblastoma subtypes. (11A) RN1, classical, and (11B) WK1, mesenchymal. Cellular efficacy (EC50) of test compounds was determined using AlamarBlue cell viability assay after 72 h of drug treatment. Data are mean±SEM from 3 independent experiments performed in triplicate.
as §1, with “568-580). […]” for “568-580).”

For data set [4], the system named is WK1 gliomaspheres (mesenchymal). As to the kind of experiment: AlamarBlue cell viability assay, WK1 gliomaspheres. The class given is cell-based. Conditions: 72 h of drug treatment, FIG. 11B. As to the method: as §3, §1
The effect of SC-38, and compounds 1-08, 1-18 and 1-38 in a cell viability assay employing patient-derived gliomaspheres was also investigated. RN1 gliomaspheres representing glioblastoma of the classical subtype were most responsive to the treatment (FIG. 11, where SC-38 is referred to as “CMPD1”, compound 1-08 is referred to as “compound 13”, compound 1-18 is referred to as “compound 7”, and compound 1-38 is referred to as “compound 10”).

The test system of data set [5] is U87. As to the kind of experiment: Annexin-FITC/7-AAD apoptosis assay, U87 cells. The class given is cell-based. Conditions: 48 hours treatment. As to the method:
(§4) FIGS. 4A-4D. […] U87 (4A-4B) and U87vIII (4C-4D) cells were treated with SC-38 for 48 hours and stained with Annexin-FITC/7-AAD. Apoptotic cells were visualized using the MUSE cell analyzer (Millipore).
(§5) FIGS. 6A-6D. […] U87 (A B) (6A-6B) and U87vIII (6C-6D) cells were treated with compound 1-08 for 48 hours and stained with Annexin-FITC/7-AAD. Apoptotic cells were visualized using the MUSE cell analyzer (Millipore). Results are means±SEM from 3 independent experiments. One-way ANOVA followed by Dunnet post-test was used to calculate statistical significance (***P<0.001).
(§6) U87 (FIGS. 4, A-B) and U87vIII (FIG. 4, C-D) cells were treated with SC-38 for 48 hours and stained with Annexin-FITC/7-AAD. Apoptotic cells were visualized using the MUSE cell analyzer (Millipore). Results are means±SEM from 3 independent experiments. One-way ANOVA followed by Dunnet post-test was used to calculate statistical significance (**P<0.01, ***P<0.001)
(§7) U87 (FIGS. 6, A-B) and U87vIII (FIG. 6, C-D) cells were treated with compound 1-08 for 48 hours and stained with Annexin-FITC/7-AAD. Apoptotic cells were visualized using the MUSE cell analyzer (Millipore). Results are means±SEM from three independent experiments. One-way ANOVA followed by Dunnet post-test was used to calculate statistical significance (***P<0.001).

Data set [6] has as its system U87vIII. Kind of data set: Annexin-FITC/7-AAD apoptosis assay, U87vIII cells. The class given is cell-based. Conditions: 48 hours treatment. As to the method:
as §4, §5, §6, §7

The next data set concerns glioma cell lines. As to the kind of experiment: Viability (Alamar Blue) and cytotoxicity (ToxiLight) in glioma cell lines. Type of data set: cell-based. The settings on record: 10 nM-10 μM, 72 hours. As to the method:
Cells were treated with SC-38 (10 nM-10 μM) for 72 hours. Cells were subjected to viability testing (left, Alamar Blue viability assay, Invitrogen) and supernatant harvested for bioluminescent cytotoxicity analysis (right, ToxiLight™ bioassay kit, Lonza).

In another data set the target is T1, Porcine brain tubulin (Sus scrofa, UniProt P02550+P02554).
T1 construct: purchased Cytoskeleton, Colo., USA (Tubulin Polymerisation Assay kit); host or cells: porcine brain (tissue-purified)
T1 sequence (P02550 whole entry): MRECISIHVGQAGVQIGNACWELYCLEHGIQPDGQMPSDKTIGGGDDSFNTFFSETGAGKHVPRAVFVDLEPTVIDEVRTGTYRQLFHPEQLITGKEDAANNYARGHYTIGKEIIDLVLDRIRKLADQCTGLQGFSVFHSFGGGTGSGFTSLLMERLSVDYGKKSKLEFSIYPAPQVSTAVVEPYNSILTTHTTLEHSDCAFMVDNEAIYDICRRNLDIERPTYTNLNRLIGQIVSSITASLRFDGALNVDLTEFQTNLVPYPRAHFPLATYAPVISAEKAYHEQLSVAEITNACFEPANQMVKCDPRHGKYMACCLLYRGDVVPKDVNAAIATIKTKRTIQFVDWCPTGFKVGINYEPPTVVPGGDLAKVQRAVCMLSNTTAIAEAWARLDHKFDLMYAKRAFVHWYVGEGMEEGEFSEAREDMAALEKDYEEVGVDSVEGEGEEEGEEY
T1 sequence (P02554 whole entry): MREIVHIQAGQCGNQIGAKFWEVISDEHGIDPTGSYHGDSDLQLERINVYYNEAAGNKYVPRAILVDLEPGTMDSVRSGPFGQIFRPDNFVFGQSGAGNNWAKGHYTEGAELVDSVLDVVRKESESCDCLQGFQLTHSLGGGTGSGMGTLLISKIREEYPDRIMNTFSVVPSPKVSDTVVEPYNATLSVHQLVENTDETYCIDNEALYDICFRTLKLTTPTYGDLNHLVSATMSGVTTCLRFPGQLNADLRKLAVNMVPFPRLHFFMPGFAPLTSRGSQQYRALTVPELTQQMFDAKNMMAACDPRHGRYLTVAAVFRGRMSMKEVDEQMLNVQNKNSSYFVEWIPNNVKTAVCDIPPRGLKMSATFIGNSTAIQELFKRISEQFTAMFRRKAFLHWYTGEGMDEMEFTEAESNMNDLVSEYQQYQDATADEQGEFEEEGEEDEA
As to the kind of experiment: Fluorescence-based tubulin polymerisation assay. Type of data set: biochemical. Conditions: 37° C., FIG. 10A. As to the method: FIGS. 10A-10D. […] (10A) Compound 1-08 inhibits tubulin polymerisation in vitro. Data are expressed as mean from at least 3 independent experiments; each data point was performed in triplicates. (10B) U87 cells treated with compound 1-08 (24 h) were stained with Alexa488-labelled anti-β-tubulin antibody (green) or DAPI (blue). Treatment profoundly disturbed the microtubule network and caused formation of multinucleated cell (white arrows). White scale bar represents 50 μm. Multinucleated cells were manually counted and at least 200 cells were counted for each sample. Data in the bar graph (10C) are expressed as mean±SEM (n=3; * P<0.05, *** P<0.001; 1-way ANOVA followed by Newman-Keuls posttest). (10D) U87 cells were treated with compound 1-08 (48 h), tubulin and DNA were stained as in (10B). Treatment with 1-08 caused defective mitotic spindle formation. Representative images from 3 independent experiments are shown. White scale bar represents 2 μm.
The effect of compound 1-08 on tubulin polymerisation and mitotic spindle formation was also investigated. The fluorescence-based tubulin polymerisation assay was conducted in the final volume of 55 μL using the Tubulin Polymerisation Assay kit (Cytoskeleton, Colo., USA) as per the manufacturer's instructions. Porcine brain tubulin was incubated with test compounds (paclitaxel, vinblastine and compound 1-08) at 37° C. and fluorescence was measured using FLUOstar Omega microplate reader (BMG Labtech, Ortenberg, Germany; excitation at 355 nm and emission at 460 nm). […] To test whether compound 1-08 alters microtubules in vivo, U87 glioblastoma cells were treated with compound 1-08 and the effect on the microtubules was determined by immunofluorescence staining of β-tubulin. […] The consequence of microtubule depolymerisation induced by compound 13 was disrupted spindle assembly (FIG. 10D). In untreated U87 cells undergoing mitosis, microtubules are assembled into bipolar spindles (control images).

The nature of data set [7]: Brain uptake in BALB/c mice. The class given is in vivo. Conditions: 10 mg/kg intraperitoneally, brains harvested at 30 and 60 min, HPLC. As to the method:
BALB/c mice were injected intraperitoneally with tested inhibitor (10 mg/kg) and brains harvested at 30 and 60 min. Solid-phase extraction was performed using brain homogenates and the amount of the test compound was determined with HPLC. Lapatinib data are from Polli, J. W. et al. “The Role of Efflux and Uptake Transporters in N-{3-Chloro-4-[(3-fluorobenzyl)oxy]phenyl}-6-[5-({[2-(methylsulfonyl)ethyl]amino}methyl)-2-furyl]-4-quinazolinamine (GW572016, Lapatinib) Disposition and Drug Interactions”, Drug Metabolism and Disposition 36, 695-701 (2008).

The term EC50 denotes the midpoint of the concentration-response curve. On to `COc1ncc(-c2ccc(CCCC(=O)Nc3ccc(O)cc3)cc2)cn1` [Compound 1-19, N-(4-hydroxyphenyl)-4-(4-(2-methoxypyrimidin-5-yl)phenyl)butanamide], for which the EC50 in the data set with U87 [1], with U87vIII [2] and in the data set with U251 was over 10000 nM each time.

Take `O=C(CCCc1ccc(Br)cc1)Nc1ccc(O)cc1` [Compound 1-17, 4-(4-bromophenyl)-N-(4-hydroxyphenyl)butanamide]: the EC50 in the data set with U87 [1], in the data set with U87vIII [2] and with U251 was over 10000 nM throughout.

On to `O=C(CCCc1ccc(-c2cccnc2)cc1)Nc1ccc(O)cc1` [Compound 1-38, N-(4-hydroxyphenyl)-4-(4-(pyridin-3-yl)phenyl)butanamide], for which the EC50 in the data set on U87 [1] stood at 4600 ± 800 nM; in the data set on U87vIII [2], 4300 ± 300 nM; in the data set on U251, 1200 ± 100 nM.

Take `O=C(CCCc1ccc(-c2ccccc2F)cc1)Nc1ccc(O)cc1` [SC-38, reference compound]: the EC50 is 380 ± 100 nM in the data set with U87 [1]; 680 ± 100 nM in the data set with U87vIII [2]; 430 ± 100 nM with U251; 260 nM in data set [3]; 910 nM in data set [4]. Also, in the data set on U87 [5], the “apoptosis, U87” value is recorded as “induced apoptosis”. In the data set with U87vIII [6], the “apoptosis, U87vIII” value was “induced apoptosis”. In addition, in the data set on glioma cell lines (Alamar Blue), the “viability of glioma cell lines” value was “decreases viability of glioma cell lines”. The “cytotoxicity (ToxiLight)” value in the data set with glioma cell lines (supernatant) is “selectively cytotoxic”.

For the compound `O=C(CCCc1ccc(-c2ccc(F)nc2F)cc1)Nc1ccc(O)cc1` [Compound 1-22, 4-(4-(2,6-difluoropyridin-3-yl)phenyl)-N-(4-hydroxyphenyl)butanamide], the values for the EC50 in the data set on U87 [1], in the data set on U87vIII [2] and in the data set on U251 were 2900 ± 900 nM, 3400 ± 400 nM and 1650 ± 100 nM, respectively.

Take `CC(=O)O[C@H]1C(=O)[C@@]2(C)[C@H]([C@H](OC(=O)c3ccccc3)[C@]3(O)C[C@H](OC(=O)[C@H](O)[C@@H](NC(=O)c4ccccc4)c4ccccc4)C(C)=C1C3(C)C)[C@]1(OC(C)=O)CO[C@@H]1C[C@@H]2O` [paclitaxel]: the “effect on tubulin polymerisation compared to control” value on Porcine brain tubulin is “enhanced tubulin polymerisation”.

On to `NCc1ccc(-c2ccc(CCCC(=O)Nc3ccc(O)cc3)cc2)cc1` [Compound 1-07, 4-(4′-(aminomethyl)-[1,1′-biphenyl]-4-yl)-N-(4-hydroxyphenyl)butanamide], for which the EC50 in the data set on U87 [1] was 1800 ± 300 nM; in the data set with U87vIII [2], 3100 ± 1000 nM; in the data set with U251, 1500 ± 300 nM.

As for `O=C(CCCc1ccc(-c2cncnc2)cc1)Nc1ccc(O)cc1` [Compound 1-01, N-(4-hydroxyphenyl)-4-(4-(pyrimidin-5-yl)phenyl)butanamide], the half-maximal effective concentration (EC50) with U87 [1], with U87vIII [2] and in the data set on U251 was over 10000 nM throughout.

`O=C(CCCc1ccc(-c2cccnc2F)cc1)Nc1ccccc1` [Compound 1-20, 4-(4-(2-fluoropyridin-3-yl)phenyl)-N-phenylbutanamide]: the figures for the half-maximal effective concentration (EC50) with U87 [1], in the data set with U87vIII [2] and in the data set on U251 were 6600 ± 900 nM, over 10000 nM and 4600 ± 200 nM, respectively.

For `O=C(CCCc1ccc(-c2ccc(F)nc2)cc1)Nc1ccc(O)cc1` [Compound 1-21, 4-(4-(6-fluoropyridin-3-yl)phenyl)-N-(4-hydroxyphenyl)butanamide], the results for the 50% effective concentration (EC50) with U87 [1], in the data set on U87vIII [2] and in the data set on U251 were 4800 ± 1200 nM, over 10000 nM and over 10000 nM, respectively.

With `O=C(CCCc1ccc(-c2cccnc2F)cc1)Nc1ccc(O)cc1` [Compound 1-18, 4-(4-(2-fluoropyridin-3-yl)phenyl)-N-(4-hydroxyphenyl)butanamide], the half-maximal effective concentration (EC50) with U87 [1] is 1400 ± 200 nM; with U87vIII [2] it was 1700 ± 100 nM; with U251, 1600 ± 200 nM; in data set [4], 2000 nM. Besides, in data set [7], the “brain uptake / crossing of the BBB” value is listed as “readily crossed the BBB”.

For `CC[C@]1(O)C[C@@H]2CN(CCc3c([nH]c4ccccc34)[C@@](C(=O)OC)(c3cc4c(cc3OC)N(C)[C@H]3[C@@](O)(C(=O)OC)[C@H](OC(C)=O)[C@]5(CC)C=CCN6CC[C@]43[C@@H]65)C2)C1` [vinblastine], the “effect on tubulin polymerisation compared to control” value at Porcine brain tubulin is reported as “inhibited tubulin polymerisation in a dose-dependent manner”.
